Where two headings read alike, the source gives them in different places. Where no end group is shown, it is not given here.

A word on the IC50: it is the concentration at which inhibition is half-maximal. Read a low IC50 as greater potency in that assay. For orientation: Ki means a dissociation constant, usually derived from enzyme kinetics or from competition with a known ligand. As usually defined, the Kd is the free concentration of one partner at which half of the binding sites on the other are occupied at equilibrium, for simple one-to-one binding.

For assay [1], the target named is T1, KPNA4 ARM (Homo sapiens, UniProt O00629).
T1 construct: O00629; KPNA4; Arm; 68; 487; pETM33/pETM41; Genescript; made in house; host or cells: bacteria (E. coli BL21(DE3) gold is named only for the phage-selection preparations)
As to the kind of experiment: FP competition, KPNA4 ARM major pocket (FITC-Myc probe). Type of assay: binding. The following applies: for IC50: FP competition with FITC-Myc320-328 probe for the major pocket, 50 mM KPO4 pH 7.5, n = 3 technical replicates; for Kd: Fig 5D, FP competition with FITC-Myc320-328, major groove, n = 3. From the text:
(§1) Like other importins, KPNA4 has two distinct NLS‐binding pockets on the surface of an armadillo (ARM) repeat fold (major pocket, ARM 2–4; minor pocket, ARM 6–8; Fig 5B) (Smith et al, [2018]). Bipartite NLSs are usually 17–19 amino acids long and engage both pockets. Monopartite NLSs are short basic stretches, divided into five classes (Kosugi et al, [2009]): class I KR[KR]R or K[KR]RK, class II [PR]xxKR[^DE][KR] (where ^ indicates “not”), class III KRx[WFY]xxAF, class IV [RP]xxKR[KR][^DE], and class V LGKR[KR][WFY]. The class I and class II motifs preferentially interact with the major pocket (Kosugi et al, [2009]). In contrast, class III and class IV NLSs preferentially bind to the minor pocket. Using KPNA4 as a bait against the HD2 P8 library we identified 33 peptides found in 32 proteins. Of the 26 proteins for which information was available, 22 proteins were annotated as having nuclear or nucleolar localization in the UniProt database. To gain additional information we combined the data generated for KPNA4 by screening against the complete P8 HD2 library, with the results generated using two relevant sublibraries (the cytoplasmic and nuclear, and nuclear sublibraries) resulting in a set of 92 peptides containing NLS‐like sequences found in 76 proteins. Using these peptides we could generate consensus motifs that matched four of the previously reported NLS classes (Fig 5A; class I‐IV). […] Three peptides bound only to the major pocket. Eight peptides with class III motif and one KRxH‐containing peptide only bound to the minor pocket. Five peptides outcompeted both probe peptides, which may be explained by the amino acid sequence matching both class II and class III motifs (e.g., 1135‐ PSPKRKL ‐1139 in ZNF532; Fig 5), and possibly by cross specificity of the two binding pockets.

For assay [2], the target named is T1, KPNA4 ARM. In words: FP competition, KPNA4 ARM minor pocket (FITC-NCOR2 probe). The assay is classed as binding.
Text: as §1

The target of assay [3] is T2, KEAP1 Kelch (Homo sapiens, UniProt Q14145).
T2 construct: Q14145; KEAP1; Kelch; 321; 609; pETM33; Genescript; made in house; host or cells: bacteria (E. coli BL21(DE3) gold is named only for the phage-selection preparations)
In words: FP competition, KEAP1 Kelch. Type of assay: binding. As to conditions: for binding to KEAP1 Kelch, result in words: FP competition with FITC-NFE2L1 probe.
Description: Fluorescence polarization affinity measurements were carried out with an iD5 multidetection plate reader (Molecular Devices) using Corning assay 96‐well half area black Flat‐bottom Nonbinding surface plates (Corning, USA #3993). The settings were 485 nm excitation and 535 nm for emission at a reading height of 1.76 mm and total volume of 50 µl. Peptides were obtained from GeneCust (France) at > 95% purity. Unlabeled peptides were dissolved in 50 mM KPO4 or 50 mM NaPO4, pH 7.5. FITC‐labeled peptides were dissolved in dimethyl sulfoxide (DMSO). Protein for saturation experiments, or peptides for the displacement experiments, were arrayed in serial dilution in 50 mM KPO4 pH 7.5 in 25 µl, followed by addition of 25 µl of a master mix. For saturation binding experiments, the master mix contained 2 mM DTT and 10 nM FITC‐labeled peptide in 50 mM KPO4 pH 7.5 or 50 mM NaPO4 pH 7.5. For competition experiments, the master mix was supplemented with the protein of interest at a concentration of four times the K D value. Data were analyzed with GraphPad Prism version 9.0.0 for MacOS (GraphPad Software, San Diego, California USA, www.graphpad.com). For direct binding, we used a quadratic equation with pept indicating the fixed probe peptide concentrations, X indicating the protein concentration, the constant A being the signal amplitude divided by probe peptide concentration, and B is the plateau value: Y=A∗pept+X+KD‐(pept+X+KD)^2‐4∗pept∗X/2+B.
For the FP competition experiments data were fitted to a sigmoidal dose–response (variable response; GraphPad Prism).

Assay [4] concerns immobilized GST-tagged bait protein domains. As to the kind of experiment: ProP-PD phage selections (HD2 P8, sublibraries, HD2 P3, HD1 P8) with NGS and confidence level. The following applies: bait CRK_SH3_1_P46108_124_198; library HD2; benchmarking set of validated motif instances; TRUE = motif instance recovered in the ProP-PD selection. Type of assay: binding, human.

T2 sequence (Q14145 321-609): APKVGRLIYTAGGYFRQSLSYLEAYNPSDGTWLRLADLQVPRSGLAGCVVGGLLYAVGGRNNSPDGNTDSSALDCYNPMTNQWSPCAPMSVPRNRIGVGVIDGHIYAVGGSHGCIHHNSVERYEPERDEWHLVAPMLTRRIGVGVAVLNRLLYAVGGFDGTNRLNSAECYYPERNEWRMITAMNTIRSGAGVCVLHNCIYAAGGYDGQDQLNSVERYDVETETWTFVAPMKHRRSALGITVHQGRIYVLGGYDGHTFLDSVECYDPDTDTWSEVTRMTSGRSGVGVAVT
T1 sequence (O00629 68-487): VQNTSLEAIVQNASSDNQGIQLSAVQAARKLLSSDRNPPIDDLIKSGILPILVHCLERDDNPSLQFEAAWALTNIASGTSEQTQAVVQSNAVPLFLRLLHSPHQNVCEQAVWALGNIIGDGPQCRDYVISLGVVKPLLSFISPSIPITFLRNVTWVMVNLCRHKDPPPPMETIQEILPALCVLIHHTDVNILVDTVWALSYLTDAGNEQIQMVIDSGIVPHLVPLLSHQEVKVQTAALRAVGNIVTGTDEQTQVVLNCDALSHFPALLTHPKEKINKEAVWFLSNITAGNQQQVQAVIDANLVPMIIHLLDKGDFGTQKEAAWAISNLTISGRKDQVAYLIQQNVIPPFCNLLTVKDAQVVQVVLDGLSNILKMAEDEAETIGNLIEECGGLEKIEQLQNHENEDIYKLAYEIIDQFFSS

Compound `CC(C)C[C@H](NC(=O)[C@H](CCCNC(=N)N)NC(=O)[C@@H]1CCCN1C(=O)[C@H](CCCNC(=N)N)NC(=O)[C@H](CCCCN)NC(=O)[C@H](CC(N)=O)NC(=O)[C@@H]1CCCN1C(=O)[C@H](Cc1ccccc1)NC(=O)[C@@H](NC(=O)[C@H](CC(=O)O)NC(=O)[C@H](CCC(=O)O)NC(=O)[C@@H](N)CO)[C@@H](C)O)C(=O)N[C@@H](CCC(=O)O)C(=O)N[C@@H](CC(=O)O)C(=O)N[C@@H](CCCCN)C(=O)N[C@H](C(=O)N[C@H](C(N)=O)C(C)C)[C@@H](C)O` [SPRTN] came in with an IC50 in assay [1] of 0.26 µM.

`CC(C)C[C@H](NC(=O)[C@H](CCCCN)NC(=O)[C@H](CCCNC(=N)N)NC(=O)[C@H](CCCCN)NC(=O)[C@@H]1CCCN1C(=O)[C@H](CO)NC(=O)[C@@H]1CCCN1)C(=O)N[C@@H](CCC(=O)O)C(=O)N[C@@H](CCC(=O)O)C(=O)N1CCC[C@H]1C(=O)N[C@H](C(=O)N[C@@H](CC(C)C)C(=O)N[C@@H](CCC(=O)O)C(=O)N[C@@H](Cc1ccccc1)C(=O)N[C@@H](CCCNC(=N)N)C(=O)N1CCC[C@H]1C(N)=O)C(C)C` [ZNF532] had an IC50 in assay [2] of 1.3 µM. In other words, the single-digit micromolar range.

As for AGVKRSAAEMYGSVTE-NH2 [HNRNPC], the IC50 in assay [2] was 0.5 µM. Compared with the last compound, the IC50 is about 2.6-fold lower.

In assay [2], Ac-EISLKRSYESVEGNIK-NH2 [NCOR1 Wt] returned an IC50 of 11 µM.

In the case of Ac-GIIDPSTGECFPVTDY-NH2, in assay [3], the IC50 came out at 2.3 µM and the “binding to KEAP1 Kelch, result in words” value is listed as “no effect on binding”.

“Ac-GIIDPSTGERFPVTDY-NH2 [PLEC 4457-4471]” returned an IC50 in assay [3] of 1.5 µM. That is a single-digit micromolar value.

Regarding Ac-LIYVDKENGEPGTRVV-NH2 [PTTG1], in assay [3], the IC50 was 3 µM.

Ac-PPLPPPPLPPAPSLPY-NH2 [ATF5]: in assay [3], the IC50 was 4430 µM.

For Ac-VLPDCLTDGSDVVSDY-NH2 [CFAP36], the Ki in assay [3] (FP competition with FITC-NFE2L1 228-243 probe, protein at 4x KD and 10 nM probe in master mix, 50 mM KPO4 pH 7.5, Ki calculated from IC50, triplicates) is more than 2040 µM. In assay [3] (FP competition with FITC-NFE2L1 228-243 probe, protein at 4x KD and 10 nM probe in master mix, 50 mM KPO4 pH 7.5, triplicates), this compound showed an IC50 of more than 2040 µM. Also, the “binding to KEAP1 Kelch, result in words” value in assay [3] is “did not bind at all”.

In the case of Ac-YDEEKGEFLPIQPAQH-NH2 [NFE2L2 T80K], the IC50 in assay [3] stood at 2540 µM. In other words, the millimolar range.

Compound Ac-YDEETGEFLPIQPAQH-NH2 [NFE2L2 Wt] showed an IC50 in assay [3] of 0.31 µM. This IC50 is about 8200-fold lower than that of the compound before.

In the case of Ac-YDEKTGEFLPIQPAQH-NH2 [NFE2L2 E79K], the half-maximal inhibitory concentration (IC50) in assay [3] was 1650 µM.

Compound Ac-YMQHLQEQQQQQMHLQ-NH2 [TREF1] came in with a half-inhibitory concentration (IC50) in assay [3] of 490 µM. This IC50 is about 3.4-fold lower than that of the compound before.

DHQFPAKRPRLSEPQG-NH2 [HJURP]: the IC50 in assay [1] was determined as 0.076 µM; in assay [2] it was 170 µM.

Consider DLKRRLDSITSSQSSA-NH2 [KDR], for which, in assay [1], the IC50 was 22 µM and the Kd amounted to 14 µM. The compound further had an IC50 in assay [2] of 24 µM.

In assay [1], EDSIEPPHKRLCLSSE-NH2 [DMTF1] registered an IC50 of 0.13 µM and a Kd of 0.075 µM.

ELKRKLEQEQKLVEVL-NH2 [MKL2] came in with an IC50 in assay [2] of 36 µM.

Take ERENPSKRSRIERDID-NH2 [CTDSPL2]: the IC50 in assay [1] was 1.9 µM.

In the case of GFDAVTGEFTGMPEQW-NH2 [PAK1], the IC50 in assay [3] is 44 µM. In addition, the motif_found entry in assay [4] is on record as “FALSE”.

In assay [2], GKKRTFDETVSTYVPL-NH2 [TPX2] had a half-inhibitory concentration (IC50) of 0.41 µM. In addition, the Kd in assay [2] (read-out: KD (Fig 5D)) came to 0.047 µM.

In assay [2], GVKRTYSEVYPGQQYL-NH2 [ZMIZ2] returned an IC50 of 0.43 µM.

As for IDPSTGERFPVTDAVN-NH2 [PLEC 4459-4474], in assay [3], the IC50 was found to be 6.1 µM.

On to IPEKKQRLEEATTICL-NH2 [AFF2], for which the IC50 in assay [1] is 2.3 µM; in assay [2], 3800 µM.

The compound PFKRPHSTISDSSTSS-NH2 [PLEKHG4B] registered an IC50 in assay [2] of 3.6 µM. In other words, the single-digit micromolar range.

Take PKRTYDMMEGRVGRAI-NH2 [NCOR2]: the 50% inhibitory concentration (IC50) in assay [2] came to 0.12 µM.

As to SLAPVKRTYEQMEFPL-NH2 [ADNP], the IC50 in assay [2] is 1.3 µM.

On to STMKRKHDEIQRSLPV-NH2 [ZBED9], for which, in assay [2], the IC50 was 2.4 µM. This IC50 lies about 1.8-fold higher than the previous one.

In the case of VEPETKRLKLAASEDH-NH2 [ZRANB3], the half-inhibitory concentration (IC50) in assay [1] turned out to be 0.24 µM. This counts as sub-micromolar.

Turning to YDPVTGEWKSLAKLPE-NH2 [KLHL24], the IC50 in assay [3] came to 80 µM. In other words, the double-digit micromolar range.

The values are drawn from article PMC8769072, “Proteome‐scale mapping of binding sites in the unstructured regions of the human proteome” (Molecular Systems Biology, 2022).
